Read-outs that look alike come from different tables or passages of the source.
Legend:
[1] = biological target: T1, AKR1C3 (Homo sapiens, UniProt P42330); assay: 11β-PGF2α formation from PGD2 by ELISA in the cell line panel; format: cell-based; settings: 10 μM; all cell lines that expressed AKR1C3; 28 nM PGD2, 24 h
T1 sequence (P42330 1-323): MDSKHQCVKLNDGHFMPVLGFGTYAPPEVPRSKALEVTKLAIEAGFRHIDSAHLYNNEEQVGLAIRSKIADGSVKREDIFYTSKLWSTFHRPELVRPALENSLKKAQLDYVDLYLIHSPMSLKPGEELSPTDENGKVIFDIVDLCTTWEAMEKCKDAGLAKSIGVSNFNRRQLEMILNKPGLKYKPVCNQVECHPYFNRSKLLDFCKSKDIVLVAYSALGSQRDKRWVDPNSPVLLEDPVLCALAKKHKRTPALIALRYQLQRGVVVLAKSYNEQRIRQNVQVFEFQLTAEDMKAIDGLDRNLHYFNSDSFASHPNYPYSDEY
Procedure: (§1) Cells were seeded into 96-well plates in hormone-deprived media at appropriate seeding densities [10,000–50,000 cells per well for all lines except HCC1500 (100,000 cells per well; 11β-PGF2α ELISA)] to reach approximately 70% confluency at the time of sampling and were left to settle for 24 h at 37°C and 5% CO2. Inhibitors were added to the plates at single or multiple concentrations for 1 h prior to administration of equimolar (28 nM) concentrations of PGD2 (11β-PGF2α ELISA), androstenedione (testosterone ELISA), or estrone (17β-estradiol ELISA). The plates were returned to the incubator for a further 24 h before cell supernatant was removed for analysis of 11β-PGF2α, testosterone, or 17β-estradiol by ELISA as per manufacturer’s instructions (11β-PGF2α and testosterone ELISA, Cayman Chemical Company; 17β-estradiol ELISA, Oxford Biomedical Research), and cells were fixed for sulforhodamine B analysis as described below. Each ELISA plate was read at a wavelength of 405 nm (11β-PGF2α and testosterone) or 650 nM (17β-estradiol) on a SpectraMax M2 microplate reader (Molecular Devices) and quantitated against a standard curve generated in hormone-deprived culture media. […]
The PGD2 11-ketoreductase activity of AKR1C3 was determined by stimulating the cell line panel with PGD2 for 24 h, then detecting 11β-PGF2α levels by ELISA.

[2] = test system: all cell lines; assay: Unstimulated cell proliferation (sulforhodamine B), 5 days, all cell lines; format: cell-based, human; settings: 10 μM, all cell lines except MCF7
Procedure: Cells were seeded into 96-well plates in hormone-deprived media at appropriate seeding densities (5000–20,000 cells per well) to reach approximately 70% confluency at the time of sampling and left to settle for 48 h at 37°C and 5% CO2. […] The plates were returned to the incubator for 5 days before fixing in 10% trichloroacetic acid (Merck Millipore) at 4°C for 1 h and staining with 0.4% sulforhodamine B (Sigma-Aldrich) in 1% acetic acid for 30 min in the dark at room temperature. Plates were washed in 1% acetic acid, dried, and incubated with unbuffered Tris base (10 mM; Serva) for 30 min on a plate shaker in the dark to solubilize the stain. The plates were read on a BioTek EL808 microplate reader at an absorbance of 490 nm with a reference wavelength of 450 nm.
Finally, we investigated whether inhibiting AKR1C3-dependent testosterone or 17β-estradiol production could prevent androstenedione- or estrone-stimulated cell proliferation in CRPC or ER-positive breast cancer cells.

[3] = test system: LNCaP cells; assay: Testosterone ELISA after androstenedione stimulation; format: cell-based, human; settings: 10 μM; 28 nM androstenedione, 24 h; P < 0.05
Procedure: as §1, with “The plates were returned to the incubator for a further 24 h before cell supernatant was removed for analysis of 11β-PGF2α, testosterone, or 17β-estradiol by ELISA as per manufacturer’s instructions (11β-PGF2α and testosterone ELISA, Cayman Chemical Company; 17β-estradiol ELISA, Oxford Biomedical Research), and cells were fixed for sulforhodamine B analysis as described below.” left out
Since AKR1C3 has been implicated in the development of CRPC because of its ability to produce testosterone intratumorally from circulating androstenedione, we determined testosterone concentrations in the prostate cancer cell lines and known high and low AKR1C3-expressing cells after stimulation with androstenedione for 24 h. […]

[4] = test system: NCI-H460 cells; assay: as above; format: cell-based, human; settings: Homo sapiens, NCI-H460; 10 μM; 28 nM androstenedione, 24 h; read-out: Inhibition of testosterone levels
Procedure: (§2) Cells were seeded into 96-well plates in hormone-deprived media at appropriate seeding densities [10,000–50,000 cells per well for all lines except HCC1500 (100,000 cells per well; 11β-PGF2α ELISA)] to reach approximately 70% confluency at the time of sampling and were left to settle for 24 h at 37°C and 5% CO2. Inhibitors were added to the plates at single or multiple concentrations for 1 h prior to administration of equimolar (28 nM) concentrations of PGD2 (11β-PGF2α ELISA), androstenedione (testosterone ELISA), or estrone (17β-estradiol ELISA). The plates were returned to the incubator for a further 24 h before cell supernatant was removed for analysis of 11β-PGF2α, testosterone, or 17β-estradiol by ELISA as per manufacturer’s instructions (11β-PGF2α and testosterone ELISA, Cayman Chemical Company; 17β-estradiol ELISA, Oxford Biomedical Research), and cells were fixed for sulforhodamine B analysis as described below. Each ELISA plate was read at a wavelength of 405 nm (11β-PGF2α and testosterone) or 650 nM (17β-estradiol) on a SpectraMax M2 microplate reader (Molecular Devices) and quantitated against a standard curve generated in hormone-deprived culture media. Cross-reactivity to PGD2, androstenedione, or estrone was accounted for by adding these to cell-free wells of each ELISA plate.
(§3) Since AKR1C3 has been implicated in the development of CRPC because of its ability to produce testosterone intratumorally from circulating androstenedione, we determined testosterone concentrations in the prostate cancer cell lines and known high and low AKR1C3-expressing cells after stimulation with androstenedione for 24 h.

[5] = test system: HCT116 AKR1C3 cells; assay: as above; format: cell-based, human; settings: Homo sapiens, HCT-116; for inhibition at 10 µM: read-out: Inhibition of testosterone levels
Procedure: as §2, §3

[6] = test system: LAPC4 wild-type cells; assay: PSA concentration after androstenedione stimulation; format: cell-based, human; settings: 10 μM; androstenedione up to 10 nM, 24 h
Procedure: Cells were seeded at 20,000 cells per well (LAPC4, LAPC4 AKR1C3) or 50,000 cells per well (22RV1) into 96-well plates in hormone-deprived media and left to settle for 24 h at 37°C and 5% CO2. […] The plates were returned to the incubator for 24 h, before the cell supernatant was removed and frozen for PSA analysis. Determination of total PSA concentration was carried out at LabPLUS, Auckland City Hospital, by immunoassay on a Cobas® e601 analyzer according to manufacturer’s instructions (Roche).
Next, PSA expression was determined in the CRPC cell lines that were sensitive to SN33638-mediated inhibition of testosterone (LAPC4 AKR1C3 and 22RV1 with LAPC4 wild-type cells acting as a negative control) as a biomarker of AR activity. […] Androstenedione stimulation promoted PSA production in all three cell lines, with the highest PSA levels observed in LAPC4 AKR1C3 cells.

In the case of CC1CCCCN1S(=O)(=O)c1ccc(N2CCCC2=O)cc1 (centres unmarked) [SN33638], the “Reduction of 11β-PGF2α levels” value [1] is reported as at least 80%, the “Effect on unstimulated cell proliferation” value [2] is reported as “no effect” and the “Effect on testosterone levels” value [3] is reported as “significantly increased”. The inhibition at 10 µM [4] was 54.1%, the inhibition at 10 µM ([5]; 10 μM alone, Figure 4D) was 73.7% and the inhibition at 10 µM ([5]; 10 μM, 28 nM androstenedione, 24 h, Figure 4B) was 74.2%. The EC50 ([5]; HCT116 AKR1C3 cells, 28 nM androstenedione, 24 h, read-out: EC50 of inhibition of testosterone production) was 7.4 ± 1.2 nM and the “Effect on PSA formation” value [6] was “no significant effect”.

— publication PMC4061482 (Frontiers in Oncology, 2014)
